According to patent US8530493B2, “Indolopyridines as Eg5 kinesin modulators” (4SC AG, priority 2006, dated 2013):

These molecules were tested on RKO p21 uninduced (proliferating) colon adenocarcinoma cells (assay: Alamar Blue cell viability assay, RKO p21 uninduced (proliferating)). Settings: Homo sapiens, Table B3, anti-proliferative/cytotoxic activity, 72 hours, read-out: −log EC50 RKO p21 uninduced (proliferating) (converted).
Type: cell-based
In short: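 Viability read by Alamar Blue fluorescence (ex 544, em 590 nm), normalised to untreated wells, after 72 h, 37° C, 5% CO2 compound exposure in triplicate. Cells were uninduced (no Ponasterone A), proliferating RKO colon carcinoma p27 or p21 subclones in DMEM with 10% FCS; values are −log EC50 (mol/l).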
With `CCOc1ccc2[nH]c3c(c2c1)C[C@@]1(C)C(=O)N(CCCN2CCCCCC2)C(=O)N1[C@@H]3c1cccc(O)c1` (racemic) [Example 210, (3aSR,10RS)-2-(3-Azepan-1-yl-propyl)-6-ethoxy-10-(3-hydroxy-phenyl)-3a-methyl-3a,4,9,10-tetrahydro-2,9,10a-triaza-cyclopenta[b]fluorene-1,3-dione] the EC50 was 39.8 to 251 nM.
`COc1cc2c3c([nH]c2cc1F)[C@@H](c1cccc(O)c1)N1C(=O)N(CCCNC(C)C)C(=O)[C@]1(C)C3` (racemic) [Example 331, (3aSR,10RS)-7-Fluoro-10-(3-hydroxy-phenyl)-2-{3-isopropylamino-propyl)-6-methoxy-3a-methyl-3a,4,9,10-tetrahydro-2,9,10a-triaza-cyclopenta[b]fluorene-1,3-dione] gave an EC50 of 39.8 to 251 nM.
`COCCNCCCN1C(=O)N2[C@H](c3cccc(O)c3)c3[nH]c4ccc(OC(F)F)cc4c3C[C@@]2(C)C1=O` (racemic) [Example 205, (3aSR,10RS)-6-(1,1-Difluoro-methoxy)-10-(3-hydroxy-phenyl)-2-[3-(2-methoxy-ethylamino)-propyl]-3a-methyl-3a,4,9,10-tetrahydro-2,9,10a-triaza-cyclopenta[b]fluorene-1,3-dione] gave an EC50 of 39.8 to 251 nM.
`C[C@@]12Cc3c([nH]c4cc(F)c(Cl)cc34)[C@@H](c3cccc(O)c3)N1C(=O)N(CCNCCO)C2=O` (racemic) [Example 342, (3aSR,10RS)-6-Chloro-7-fluoro-2-[2-(2-hydroxy-ethylamino)-ethyl]-10-(3-hydroxy-phenyl)-3a-methyl-3a,4,9,10-tetrahydro-2,9,10a-triaza-cyclopenta[b]fluorene-1,3-dione] gave an EC50 of no more than 39.8 nM.
`C[C@@]12Cc3c([nH]c4ccc(OC(F)F)cc34)[C@@H](c3cccc(O)c3)N1C(=O)N(CCCN1CCCCC1)C2=O` (racemic) [Example 239, (3aSR,10RS)-6-(1,1-Difluoro-methoxy)-10-(3-hydroxy-phenyl)-3a-methyl-2-(3-piperidin-1-yl-propyl)-3a,4,9,10-tetrahydro-2,9,10a-triaza-cyclopenta[b]fluorene-1,3-dione] gave an EC50 of no more than 39.8 nM.
`COc1cc2c3c([nH]c2cc1F)[C@@H](c1cccc(O)c1)N1C(=O)N(CCN2CCN(C)CC2)C(=O)[C@]1(C)C3` (racemic) [Example 266, (3aSR,10RS)-7-Fluoro-10-(3-hydroxy-phenyl)-6-methoxy-3a-methyl-2-[2-(4-methyl-piperazin-1-yl)-ethyl]-3a,4,9,10-tetrahydro-2,9,10a-triaza-cyclopenta[b]fluorene-1,3-dione] showed an EC50 of 39.8 to 251 nM.
In the case of `CCOc1ccc2[nH]c3c(c2c1)C[C@@]1(C)C(=O)N(CCCN2CCOCC2)C(=O)N1[C@@H]3c1cccc(O)c1` (racemic) [Example 207, (3aSR,10RS)-6-Ethoxy-10-(3-hydroxy-phenyl)-3a-methyl-2-(3-morpholin-4-yl-propyl)-3a,4,9,10-tetrahydro-2,9,10a-triaza-cyclopenta[b]fluorene-1,3-dione], the EC50 is reported as 39.8 to 251 nM.
`COc1cc2c3c([nH]c2cc1F)[C@@H](c1cccc(O)c1)N1C(=O)N(CCCNCCO)C(=O)[C@]1(C)C3` (racemic) [Example 305, (3aSR,10RS)-7-Fluoro-2-[3-(2-hydroxy-ethylamino)-propyl]-10-(3-hydroyx-phenyl)-6-methoxy-3a-methyl-3a,4,9,10-tetrahydro-2,9,10a-triaza-cyclopenta[b]fluorene-1,3-dione] gave an EC50 of 39.8 to 251 nM.
With `COc1cc2c3c([nH]c2cc1F)[C@@H](c1cccc(O)c1)N1C(=O)N(CCNCC2CC2)C(=O)[C@]1(C)C3` (racemic) [Example 251, (3aSR,10RS)-2-[2-(Cyclopropylmethyl-amino)-ethyl]-7-fluoro-10-(3-hydroxy-phenyl)-6-methoxy-3a-methyl-3a,4,9,10-tetrahydro-2,9,10a-triaza-cyclopenta[b]fluorene-1,3-dione] the EC50 was no more than 39.8 nM.
`C[C@@]12Cc3c([nH]c4cc(F)c(Cl)cc34)[C@@H](c3cccc(O)c3)N1C(=O)N(CCN1CC=CC1)C2=O` (racemic) [Example 355, (3aSR,10RS)-6-Chloro-2-[2-(2,5-dihydro-pyrrol-1-yl)-ethyl]-7-fluoro-10-(3-hydroxy-phenyl)-3a-methyl-3a,4,9,10-tetrahydro-2,9,10a-triaza-cyclopenta[b]fluorene-1,3-dione] showed an EC50 of 39.8 to 251 nM.
`C[C@@]12Cc3c([nH]c4ccc(OC(F)F)cc34)[C@@H](c3cccc(O)c3)N1C(=O)N(CCN1CCOCC1)C2=O` (racemic) [Example 292, (3aSR,10RS)-6-(1,1-Difluoro-methoxy)-10-(3-hydroxy-phenyl)-3a-methyl-2-(2-morpholin-4-yl-ethyl)-3a,4,9,10-tetrahydro-2,9,10a-triaza-cyclopenta[b]fluorene-1,3-dione] gave an EC50 of 39.8 to 251 nM.
With `C[C@@]12Cc3c([nH]c4ccc(Br)cc34)[C@@H](c3cccc(O)c3)N1C(=O)N(CCCNCC1CC1)C2=O` (racemic) [Example 234, (3aSR,10RS)-6-Bromo-2-[3-(cyclopropylmethyl-amino)-propyl]-10-(3-hydroxy-phenyl)-3a-methyl-3a,4,9,10-tetrahydro-2,9,10a-triaza-cyclopenta[b]fluorene-1,3-dione] the EC50 was no more than 39.8 nM.
With `C#CCNCCN1C(=O)N2[C@H](c3cccc(O)c3)c3[nH]c4ccc(OC(F)F)cc4c3C[C@@]2(C)C1=O` (racemic) [Example 287, (3aSR,10RS)-6-(1,1-Difluoro-methoxy)-10-(3-hydroxy-phenyl)-3a-methyl-2-(2-prop-2-ynylamino-ethyl)-3a,4,9,10-tetrahydro-2,9,10a-triaza-cyclopenta[b]fluorene-1,3-dione] the EC50 was 39.8 to 251 nM.
Work on `C[C@@]12Cc3c([nH]c4ccc(OC(F)F)cc34)[C@@H](c3cccc(O)c3)N1C(=O)N(CCCN1CC=CCC1)C2=O` (racemic) [Example 242, (3aSR,10RS)-6-(1,1-Difluoro-methoxy)-2-[3-(3,6-dihydro-2H-pyridin-1-yl)-propyl]-10-(3-hydroxy-phenyl)-3a-methyl-3a,4,9,10-tetrahydro-2,9,10a-triaza-cyclopenta[b]fluorene-1,3-dione] yielded an EC50 of no more than 39.8 nM.
`CN(CCO)CCCN1C(=O)N2[C@H](c3cccc(O)c3)c3[nH]c4ccc(Br)cc4c3C[C@@]2(C)C1=O` (racemic) [Example 370, (3aSR,10RS)-6-Bromo-2-{3-[(2-hydroxy-ethyl)-methyl-amino]-propyl}-10-(3-hydroxy-phenyl)-3a-methyl-3a,4,9,10-tetrahydro-2,9,10a-triaza-cyclopenta[b]fluorene-1,3-dione] gave an EC50 of no more than 39.8 nM.
`COc1cc2c3c([nH]c2cc1F)[C@@H](c1cccc(O)c1)N1C(=O)N(CCN2CCCCC2)C(=O)[C@]1(C)C3` (racemic) [Example 263, (3aSR,10RS)-7-Fluoro-10-(3-hydroxy-phenyl)-6-methoxy-3a-methyl-2-(2-piperidin-1-yl-ethyl)-3a,4,9,10-tetrahydro-2,9,10a-triaza-cyclopenta[b]fluorene-1,3-dione] was tested, and the EC50 was 39.8 to 251 nM.
With `CCOc1ccc2[nH]c3c(c2c1)C[C@@]1(C)C(=O)N(CCCN(C)CC)C(=O)N1[C@@H]3c1cccc(O)c1` (racemic) [Example 192, (3aSR,10RS)-6-Ethoxy-2-[3-(ethyl-methyl-amino)-propyl]-10-(3-hydroxy-phenyl)-3a-methyl-3a,4,9,10-tetrahydro-2,9,10a-triaza-cyclopenta[b]fluorene-1,3-dione] the EC50 was 39.8 to 251 nM.
